Test results from patent publication US20030040012A1, “Method of detecting protein-protein interaction” (priority 2000, published 2003).

Assays:
Type in all cases: cell-based
Npw38 = experiment: Npw38-NpwBP binding detection by intracellular localization of GFP fluorescence in COS7 cells; conditions: co-introduced with Npw38 expression vector, fluorescence microscopy
Description: (§1) Monkey kidney-derived, cultured cell COS7 was incubated in a 10% fetal calf serum-containing Dulbecco's modified Eagle's medium (DMEM) in the presence of 5% CO2 at 37° C. COS7 cells of 1=10^5 were placed in a 6-well plate (from Nunk, having a well diameter of 3 cm), and further incubated therein in the presence of 5% CO2 at 37° C. for 22 hours. After the medium was removed, the cell sur were washed with a phosphate buffer solution (PBS), and then further washed with a 50 mM Tris-HCl (pH 7.5)-containing DMEM. To these cells, added was a suspension comprising 1 μl of a plasmid suspension, 0.6 ml of DMEM and 3 μl of TRANSFECTAM™ (from IBF), and incubated in the presence of 5% CO2 at 37° C. for 12 hours. Then, the cells were washed with PBS, and fixed with 4% peraformaldehyde-containing PBS at room temperature for 10 minutes. The thus-fixed cells were washed with PBS, then treated with 0.2% Triton X-100, and thereafter blocked with 5% milk PBS. This was reacted with an anti-HA antibody for 45 minutes, then washed with PBS, and reacted with a rhodamine-binding secondary antibody for 45 minutes.
Fusion protein HA-Npw38 (A. Komuro et al., J. Biol. Chem., 274: 36513-36519, 1999) was used. This is a fusion protein A-X in which X is Npw38 and A is HA tag. […] Also used were fusion proteins NpwBP(P1)-GFP and NpwBP(P2)-GFP. These are fusion proteins Y-B in which Y is a proline-rich region of NpwBP and B is GFP. In these, P1 contains amino acid residues of from 190th valine to 210th glutamine in SEQ ID NO: 2; and P2 contains amino acid residues of from 401st glutamine to 541st isoleucine in Seq ID NO: 2.
First, pKA1-NpwBP(P1)-GFP or pKA1-NpwBP(P2)-GFP was singly introduced into COS7 cells, and the localization of these fusion proteins in the cells was checked through fluorescence microscopy based on the green fluorescence of GFP as the index thereof. […] In this stage, the cells were immunostained with an antibody against the tag to check the localization of the fusion protein HA-Npw38. This verified the localization of the fusion protein in the nucleus of each cell (FIG. 3c).

NpwBP = target: T1, NpwBP (Homo sapiens, UniProt Q9Y2W2); experiment: Contrary system: NpwBP co-expressed with Npw38(ΔC)-GFP in COS7 cells, GFP localization
T1 construct: expressed in transfected cells; host or cells: COS7 (monkey kidney)
T1 sequence (Q9Y2W2 1-641): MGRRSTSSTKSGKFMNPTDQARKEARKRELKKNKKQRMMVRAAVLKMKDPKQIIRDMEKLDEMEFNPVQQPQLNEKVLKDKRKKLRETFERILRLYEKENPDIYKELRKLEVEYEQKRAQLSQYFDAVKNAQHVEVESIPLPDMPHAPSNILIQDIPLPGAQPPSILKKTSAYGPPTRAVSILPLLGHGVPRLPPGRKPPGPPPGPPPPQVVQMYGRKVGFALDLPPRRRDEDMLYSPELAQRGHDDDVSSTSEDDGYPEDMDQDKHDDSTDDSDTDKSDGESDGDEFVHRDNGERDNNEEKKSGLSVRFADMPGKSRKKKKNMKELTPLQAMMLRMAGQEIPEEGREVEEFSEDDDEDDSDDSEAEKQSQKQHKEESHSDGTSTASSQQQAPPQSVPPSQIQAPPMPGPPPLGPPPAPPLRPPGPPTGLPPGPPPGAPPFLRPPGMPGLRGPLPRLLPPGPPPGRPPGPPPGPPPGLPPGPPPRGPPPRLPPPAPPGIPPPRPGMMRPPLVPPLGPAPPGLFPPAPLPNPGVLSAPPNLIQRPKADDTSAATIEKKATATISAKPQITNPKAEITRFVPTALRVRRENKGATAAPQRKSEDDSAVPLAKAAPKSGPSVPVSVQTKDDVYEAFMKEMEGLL
Description: as §1
Systems contrary to those in the above (3) were tried.

NpwBP(P2)-Bcl-XL = target: T2, NpwBP(P2)-Bcl-XL (Homo sapiens, UniProt Q07817+Q9Y2W2); experiment: Application of mitochondrial localization signal: co-expression with NpwBP(P2)-Bcl-XL in COS7 cells; conditions: mitochondrial region detected with anti-human mitochondrial antibody
T2 construct: expressed in transfected cells; host or cells: COS7 (monkey kidney)
T2 sequence (Q9Y2W2+Q07817 fused): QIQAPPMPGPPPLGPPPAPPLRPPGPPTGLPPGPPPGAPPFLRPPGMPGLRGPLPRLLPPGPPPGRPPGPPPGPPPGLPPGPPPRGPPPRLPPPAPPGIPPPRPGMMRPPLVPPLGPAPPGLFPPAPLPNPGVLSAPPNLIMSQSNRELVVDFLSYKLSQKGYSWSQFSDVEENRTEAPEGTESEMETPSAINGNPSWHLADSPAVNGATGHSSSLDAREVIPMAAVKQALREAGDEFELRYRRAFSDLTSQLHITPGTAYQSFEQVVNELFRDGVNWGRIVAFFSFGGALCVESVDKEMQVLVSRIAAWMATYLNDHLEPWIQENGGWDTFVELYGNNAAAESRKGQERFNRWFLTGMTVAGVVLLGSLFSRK
Description: as §1, with “45 minutes. […]” for “45 minutes.”
However, when the fusion protein NpwBP(P2)Bcl-XL was co-expressed therein, the mitochondrial region of each cell also gave the fluorescence (FIG. 4). The mitochondrial region in each cell was detected through immunostaining with an anti-human mitochondrial antibody (Leinco Technologies, Inc.). […]

NpwBP(P1)-GFP: fusion protein of proline-rich region P1 of NpwBP (residues 190-210 of SEQ ID NO: 2) and GFP
localization of the green fluorescence on co-expression with Npw38 (Npw38): localized in the nucleus

Npw38(ΔC)-GFP: fusion protein in which the nuclear localization signal in Npw38 was deleted, fused to GFP
localization of the green fluorescence on co-expression with NpwBP (NpwBP): move in the nucleus | localization of the fluorescence on co-expression with NpwBP(P2)-Bcl-XL (NpwBP(P2)-Bcl-XL): localized also in the mitochondrial region

NpwBP(P2)-GFP: fusion protein of proline-rich region P2 of NpwBP (residues 401-541 of SEQ ID NO: 2) and GFP
localization of the green fluorescence on co-expression with Npw38 (Npw38): localized in the nucleus

GFP: green fluorescent protein, expressed in place of NpwBP-GFP as control [reference compound]
localization of the green fluorescence on co-expression with Npw38 (Npw38): no intranuclear localization
